Earlier results in patent US20230372315A1, “Liquid-State Pharmaceutical Composition Exhibiting Excellent Preservative Effectiveness” (ISHIHARA SANGYO KAISHA, LTD., priority 2020, published 2023).

What was measured:
[1] = beyond pH8
[2] = water having pH5 or less

| Structure (SMILES) | antibacterial activity [1] | solubility in water [2] |
| --- | --- | --- |
| OCc1ccccc1 [Benzyl alcohol] | virtually no antibacterial activity | – |
| CCS(=O)(=O)Nc1ncc(C(F)(F)F)cc1NC(=O)C1CCCCC1 [N-(2-ethylsulfonylamino-5-trifluoromethyl-3-pyridyl)cyclohexanecarboxamide] | – | virtually not dissolved |
